Results as given in ChEMBL document CHEMBL1149227, “The discovery of structurally novel CCR1 antagonists derived from a hydroxyethylene peptide isostere template” (Bioorg Med Chem Lett, 2004).

Experiments:
[1] = tested on: THP-1; assay: Inhibition of CCL5 induced chemotaxis in THP-1 cells; format: functional, cell-based; settings: Homo sapiens
[2] = target: T1, C-C chemokine receptor type 1 (Homo sapiens, UniProt P32246); assay: Inhibition of CCL3 binding to C-C chemokine receptor type 1
T1 sequence (P32246 whole entry): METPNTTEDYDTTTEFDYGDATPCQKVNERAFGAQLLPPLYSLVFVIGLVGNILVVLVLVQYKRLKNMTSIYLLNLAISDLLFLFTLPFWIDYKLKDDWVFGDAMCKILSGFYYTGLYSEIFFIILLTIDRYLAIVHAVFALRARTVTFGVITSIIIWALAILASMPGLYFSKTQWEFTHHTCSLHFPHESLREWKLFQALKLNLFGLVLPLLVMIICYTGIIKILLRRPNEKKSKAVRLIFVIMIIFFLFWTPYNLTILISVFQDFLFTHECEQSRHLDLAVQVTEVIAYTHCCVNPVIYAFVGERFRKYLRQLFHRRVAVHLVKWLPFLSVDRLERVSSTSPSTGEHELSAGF

[3] = target: T2, Renin (Rattus norvegicus, UniProt P08424); assay: Inhibitory activity of compound against renin was determined
T2 sequence (P08424 whole entry): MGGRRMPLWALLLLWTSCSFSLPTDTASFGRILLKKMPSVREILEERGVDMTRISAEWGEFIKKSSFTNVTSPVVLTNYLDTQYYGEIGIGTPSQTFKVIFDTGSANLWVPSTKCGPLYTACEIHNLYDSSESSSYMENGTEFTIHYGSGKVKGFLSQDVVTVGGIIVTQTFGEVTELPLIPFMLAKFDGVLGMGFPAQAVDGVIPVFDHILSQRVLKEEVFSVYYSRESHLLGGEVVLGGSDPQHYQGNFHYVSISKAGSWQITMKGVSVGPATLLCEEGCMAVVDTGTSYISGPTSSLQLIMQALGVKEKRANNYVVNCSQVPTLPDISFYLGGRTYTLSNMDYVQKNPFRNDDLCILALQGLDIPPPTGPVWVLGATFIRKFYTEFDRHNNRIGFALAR

[4] = tested on: THP-1; assay: (§1) Inhibition of CCL3 induced chemotaxis in THP-1 cells; inactive at a concentration of 25 uM; format: functional, cell-based; settings: Homo sapiens
[5] = tested on: THP-1; assay: Inhibition of CCL3 induced chemotaxis in THP-1 cells; format: functional, cell-based; settings: Homo sapiens
[6] = tested on: THP-1; assay: as §1; format: functional; settings: Homo sapiens

IC50 [2] [µM]	IC50 [4] [µM]	SMILES	other results
> 32		C=C(Cl)C[C@H](C[C@H](O)[C@H](CC1CCCCC1)NC(=O)c1cc2cc(Cl)ccc2[nH]1)C(=O)NC	IC50 [1]: > 25 µM; IC50 [3]: 0.041 µM
	< 50	CNC(=O)[C@H](CC(C)C)C[C@@H](O)[C@@H](CC1CCCCC1)NC(=O)c1cnc2ccccc2c1	
	> 25	CNC(=O)[C@H](CC(C)C)C[C@@H](O)[C@H](CC1CCCCC1)NC(=O)c1cnc2ccccc2c1	
30		CNC(=O)[C@@H](CC(C)C)C[C@H](O)[C@H](CC1CCCCC1)NC(=O)c1cnc2ccccc2c1	IC50 [5]: 12 µM
11.8		CNC(=O)[C@H](CC(C)C)C[C@H](O)[C@H](CC(C)C)NC(=O)c1cnc2ccccc2c1	
	< 50	CNC(=O)[C@@H](CC(C)C)C[C@H](O)[C@@H](CC1CCCCC1)NC(=O)c1cnc2ccccc2c1	
		CNC(=O)[C@H](CC(C)C)C[C@H](O)[C@@H](CC1CCCCC1)NC(=O)c1cnc2ccccc2c1	inhibition at 25 µM [6]: < 50%
8		CC(C)C[C@H](C[C@H](O)[C@H](CC1CCCCC1)NC(=O)c1cnc2ccccc2c1)C(N)=O	IC50 [5]: 6.3 µM
		CNC(=O)[C@@H](CC(C)C)C[C@@H](O)[C@H](CC1CCCCC1)NC(=O)c1cnc2ccccc2c1	IC50 [5]: 7.7 µM
2.3		CNC(=O)[C@H](CC(C)C)C[C@H](O)[C@H](CC1CCCCC1)NC(=O)c1cnc2ccccc2c1	IC50 [1]: 0.63 µM; IC50 [3]: > 10 µM
0.65		CNC(=O)[C@H](CC(C)C)C[C@H](O)[C@H](Cc1ccccc1)NC(=O)c1cnc2ccccc2c1	
	< 50	CNC(=O)[C@H](CC(C)C)C[C@H](O)[C@H](CC1CCCCC1)NS(=O)(=O)c1cnc2ccccc2c1	
15	< 50	CNC(=O)[C@@H](CC(C)C)C[C@@H](O)[C@@H](CC1CCCCC1)NC(=O)c1cnc2ccccc2c1	
	< 50	CC[C@H](C)[C@H](NC(=O)c1cnc2ccccc2c1)[C@@H](O)C[C@@H](CC(C)C)C(=O)NC	
	< 50	CC(C)C[C@H](C[C@H](O)[C@H](CC1CCCCC1)NC(=O)c1cnc2ccccc2c1)C(=O)N(C)C	
